Measured values published in the NIST ThermoML archive (doi:10.1021/acs.jced.6b00350).
Where “and” joins values, the source holds several entries; their conditions need not be identical. Equal entries are not always repeated. Numbers after ± are expanded uncertainties.

Conditions: Liquid, Hot wire method

FC(F)CC(F)(F)F [1,1,1,3,3-pentafluoropropane]
Conditions | thermal conductivity
173.21 K, 150 kPa | 0.1235 ± 0.0016 W/m/K and 0.1232 ± 0.0016 W/m/K
173.3 K, 132 kPa | 0.1239 ± 0.0016 W/m/K
173.3 K, 133 kPa | 0.1234 ± 0.0016 W/m/K
173.3 K, 148 kPa | 0.1237 ± 0.0016 W/m/K and 0.1231 ± 0.0016 W/m/K
173.41 K, 150 kPa | 0.1234 ± 0.0016 W/m/K
173.51 K, 135 kPa | 0.1234 ± 0.0016 W/m/K and 0.1231 ± 0.0016 W/m/K
173.51 K, 148 kPa | 0.1235 ± 0.0016 W/m/K and 0.1238 ± 0.0016 W/m/K
173.66 K, 150 kPa | 0.1231 ± 0.0016 W/m/K
173.75 K, 136 kPa | 0.1237 ± 0.0016 W/m/K
173.75 K, 137 kPa | 0.1236 ± 0.0016 W/m/K
173.75 K, 148 kPa | 0.1236 ± 0.0016 W/m/K
173.91 K, 150 kPa | 0.1233 ± 0.0016 W/m/K and 0.1231 ± 0.0016 W/m/K
174.01 K, 138 kPa | 0.1235 ± 0.0016 W/m/K
174.01 K, 140 kPa | 0.1235 ± 0.0016 W/m/K
174.01 K, 148 kPa | 0.1235 ± 0.0016 W/m/K
174.01 K, 149 kPa | 0.1235 ± 0.0016 W/m/K
174.21 K, 150 kPa | 0.1234 ± 0.0016 W/m/K
174.29 K, 140 kPa | 0.1233 ± 0.0016 W/m/K
174.29 K, 141 kPa | 0.1231 ± 0.0016 W/m/K
174.3 K, 149 kPa | 0.1239 ± 0.0016 W/m/K and 0.1236 ± 0.0016 W/m/K
181.78 K, 159 kPa | 0.1224 ± 0.0015 W/m/K and 0.1223 ± 0.0015 W/m/K
182.06 K, 158 kPa | 0.1227 ± 0.0016 W/m/K and 0.1222 ± 0.0015 W/m/K
182.37 K, 158 kPa | 0.1222 ± 0.0015 W/m/K and 0.1225 ± 0.0015 W/m/K
182.5 K, 266 kPa | 0.1225 ± 0.0015 W/m/K
182.5 K, 269 kPa | 0.1226 ± 0.0015 W/m/K
182.51 K, 5857 kPa | 0.1236 ± 0.0016 W/m/K
182.51 K, 70521 kPa | 0.1336 ± 0.0017 W/m/K
182.52 K, 5874 kPa | 0.1237 ± 0.0016 W/m/K
182.52 K, 12298 kPa | 0.1248 ± 0.0016 W/m/K
182.52 K, 12334 kPa | 0.1252 ± 0.0016 W/m/K
182.53 K, 18829 kPa | 0.126 ± 0.0016 W/m/K
182.53 K, 18849 kPa | 0.126 ± 0.0016 W/m/K
182.53 K, 32455 kPa | 0.1283 ± 0.0016 W/m/K
182.54 K, 25387 kPa | 0.1271 ± 0.0016 W/m/K
182.54 K, 25434 kPa | 0.1275 ± 0.0016 W/m/K
182.54 K, 63262 kPa | 0.1331 ± 0.0017 W/m/K and 0.133 ± 0.0017 W/m/K
182.55 K, 32519 kPa | 0.128 ± 0.0016 W/m/K
182.6 K, 54974 kPa | 0.1317 ± 0.0017 W/m/K
182.6 K, 54979 kPa | 0.1314 ± 0.0017 W/m/K
182.64 K, 47632 kPa | 0.1303 ± 0.0016 W/m/K
182.64 K, 47638 kPa | 0.1309 ± 0.0017 W/m/K
182.68 K, 39974 kPa | 0.1293 ± 0.0016 W/m/K
182.68 K, 39979 kPa | 0.1294 ± 0.0016 W/m/K
182.7 K, 158 kPa | 0.1222 ± 0.0015 W/m/K
182.71 K, 158 kPa | 0.1222 ± 0.0015 W/m/K
182.81 K, 266 kPa | 0.1225 ± 0.0015 W/m/K
182.81 K, 278 kPa | 0.1224 ± 0.0015 W/m/K
182.81 K, 5870 kPa | 0.1236 ± 0.0016 W/m/K
182.81 K, 5874 kPa | 0.1234 ± 0.0016 W/m/K
182.81 K, 70507 kPa | 0.134 ± 0.0017 W/m/K
182.81 K, 70514 kPa | 0.134 ± 0.0017 W/m/K
182.82 K, 12333 kPa | 0.1247 ± 0.0016 W/m/K
182.83 K, 18827 kPa | 0.1259 ± 0.0016 W/m/K
182.83 K, 18835 kPa | 0.1259 ± 0.0016 W/m/K
182.83 K, 25436 kPa | 0.1272 ± 0.0016 W/m/K
182.84 K, 25420 kPa | 0.127 ± 0.0016 W/m/K
182.84 K, 32528 kPa | 0.1281 ± 0.0016 W/m/K
182.84 K, 32589 kPa | 0.128 ± 0.0016 W/m/K
182.85 K, 63255 kPa | 0.1331 ± 0.0017 W/m/K
182.91 K, 54970 kPa | 0.1314 ± 0.0017 W/m/K
182.92 K, 54983 kPa | 0.1316 ± 0.0017 W/m/K
182.95 K, 47626 kPa | 0.1304 ± 0.0016 W/m/K
182.95 K, 47631 kPa | 0.1305 ± 0.0016 W/m/K
182.99 K, 39966 kPa | 0.129 ± 0.0016 W/m/K
182.99 K, 39976 kPa | 0.1291 ± 0.0016 W/m/K
183.06 K, 158 kPa | 0.1223 ± 0.0015 W/m/K and 0.1222 ± 0.0015 W/m/K
183.13 K, 269 kPa | 0.1224 ± 0.0015 W/m/K
183.14 K, 277 kPa | 0.1224 ± 0.0015 W/m/K
183.14 K, 5876 kPa | 0.1234 ± 0.0016 W/m/K
183.14 K, 5877 kPa | 0.1234 ± 0.0016 W/m/K
183.14 K, 70492 kPa | 0.1338 ± 0.0017 W/m/K
183.14 K, 70493 kPa | 0.134 ± 0.0017 W/m/K
183.15 K, 12341 kPa | 0.1246 ± 0.0016 W/m/K
183.15 K, 18865 kPa | 0.1257 ± 0.0016 W/m/K
183.15 K, 25402 kPa | 0.1266 ± 0.0016 W/m/K
183.16 K, 12323 kPa | 0.1246 ± 0.0016 W/m/K
183.16 K, 18832 kPa | 0.1258 ± 0.0016 W/m/K
183.16 K, 25441 kPa | 0.1268 ± 0.0016 W/m/K
183.16 K, 32517 kPa | 0.1281 ± 0.0016 W/m/K
183.17 K, 32553 kPa | 0.1282 ± 0.0016 W/m/K
183.18 K, 63248 kPa | 0.1329 ± 0.0017 W/m/K
183.19 K, 63254 kPa | 0.133 ± 0.0017 W/m/K
183.25 K, 54977 kPa | 0.1312 ± 0.0017 W/m/K
183.25 K, 54980 kPa | 0.1317 ± 0.0017 W/m/K
183.29 K, 47629 kPa | 0.13 ± 0.0016 W/m/K
183.3 K, 47628 kPa | 0.1305 ± 0.0016 W/m/K
183.34 K, 39964 kPa | 0.1291 ± 0.0016 W/m/K
183.34 K, 39965 kPa | 0.1291 ± 0.0016 W/m/K
183.5 K, 279 kPa | 0.1222 ± 0.0015 W/m/K
183.5 K, 290 kPa | 0.1225 ± 0.0015 W/m/K
183.5 K, 5883 kPa | 0.1234 ± 0.0016 W/m/K
183.5 K, 12421 kPa | 0.1245 ± 0.0016 W/m/K
183.5 K, 70475 kPa | 0.1338 ± 0.0017 W/m/K
183.5 K, 70484 kPa | 0.1336 ± 0.0017 W/m/K
183.51 K, 5882 kPa | 0.1233 ± 0.0016 W/m/K
183.51 K, 12360 kPa | 0.1246 ± 0.0016 W/m/K
183.51 K, 18836 kPa | 0.1258 ± 0.0016 W/m/K
183.51 K, 18859 kPa | 0.1258 ± 0.0016 W/m/K
183.51 K, 25404 kPa | 0.1269 ± 0.0016 W/m/K
183.51 K, 25455 kPa | 0.1269 ± 0.0016 W/m/K
183.51 K, 32519 kPa | 0.1282 ± 0.0016 W/m/K
183.51 K, 32578 kPa | 0.1281 ± 0.0016 W/m/K
183.54 K, 63251 kPa | 0.133 ± 0.0017 W/m/K
183.55 K, 63252 kPa | 0.1329 ± 0.0017 W/m/K
183.62 K, 54975 kPa | 0.1314 ± 0.0017 W/m/K
183.66 K, 47626 kPa | 0.1304 ± 0.0016 W/m/K
183.67 K, 47632 kPa | 0.1303 ± 0.0016 W/m/K
183.71 K, 39948 kPa | 0.129 ± 0.0016 W/m/K
183.71 K, 39959 kPa | 0.1291 ± 0.0016 W/m/K
183.88 K, 5875 kPa | 0.1233 ± 0.0016 W/m/K
183.88 K, 18828 kPa | 0.1257 ± 0.0016 W/m/K
183.88 K, 18858 kPa | 0.1257 ± 0.0016 W/m/K
183.88 K, 25416 kPa | 0.1267 ± 0.0016 W/m/K
183.88 K, 32497 kPa | 0.1281 ± 0.0016 W/m/K
183.88 K, 70464 kPa | 0.1338 ± 0.0017 W/m/K
183.89 K, 5878 kPa | 0.1233 ± 0.0016 W/m/K
183.89 K, 12374 kPa | 0.1246 ± 0.0016 W/m/K
183.89 K, 12395 kPa | 0.1244 ± 0.0016 W/m/K
183.89 K, 25431 kPa | 0.1268 ± 0.0016 W/m/K
183.89 K, 32541 kPa | 0.1281 ± 0.0016 W/m/K
183.89 K, 70475 kPa | 0.1341 ± 0.0017 W/m/K
183.9 K, 282 kPa | 0.1223 ± 0.0015 W/m/K
183.9 K, 287 kPa | 0.1222 ± 0.0015 W/m/K
183.93 K, 63243 kPa | 0.1325 ± 0.0017 W/m/K
183.93 K, 63247 kPa | 0.1328 ± 0.0017 W/m/K
184.01 K, 54967 kPa | 0.1313 ± 0.0017 W/m/K
184.01 K, 54970 kPa | 0.1314 ± 0.0017 W/m/K
184.06 K, 47633 kPa | 0.1303 ± 0.0016 W/m/K
184.06 K, 47634 kPa | 0.13 ± 0.0016 W/m/K
184.1 K, 39951 kPa | 0.129 ± 0.0016 W/m/K
184.1 K, 39957 kPa | 0.129 ± 0.0016 W/m/K
201.76 K, 4752 kPa | 0.1207 ± 0.0015 W/m/K
201.76 K, 4760 kPa | 0.1207 ± 0.0015 W/m/K
201.78 K, 10055 kPa | 0.1218 ± 0.0015 W/m/K
201.78 K, 10078 kPa | 0.1219 ± 0.0015 W/m/K
201.81 K, 15810 kPa | 0.1231 ± 0.0016 W/m/K
201.85 K, 253 kPa | 0.1197 ± 0.0015 W/m/K
201.86 K, 245 kPa | 0.1197 ± 0.0015 W/m/K
